In brackets after ≈: the same amount, converted by molar mass. Entries after “also recorded” stand apart in the source; their conditions may differ.
Columns and labels:
HeLa = experiment: Anti-HeLa activity; format: cell-based; conditions: 72 hours' culturing
Description: *number of cells after 72 hours' culturing in the presence of oxanosine

Proteus rettgeri GN 466 = experiment: Antimicrobial spectrum in 0.5% peptone agar; format: cell-based; conditions: Providencia rettgeri, GN466, read-out: Minimum Growth Inhibition Concentration
Salmonella typhi T-63 = experiment: Antimicrobial spectrum in 0.5% peptone agar; format: cell-based; conditions: Salmonella enterica, read-out: Minimum Growth Inhibition Concentration
Escherichia coli NIHJ = experiment: Antimicrobial spectrum in 0.5% peptone agar; format: cell-based; conditions: read-out: Minimum Growth Inhibition Concentration
[1] = tested on: Proteus mirabilis IFM OM-9; experiment: Antimicrobial spectrum in 0.5% peptone agar; format: cell-based; conditions: IFMOM9, read-out: Minimum Growth Inhibition Concentration
[2] = tested on: Shigella flexneri 4B JS 11811; experiment: Antimicrobial spectrum in 0.5% peptone agar; format: cell-based; conditions: 4BJS11811, read-out: Minimum Growth Inhibition Concentration
[3] = Acute toxicity in the mouse; format: in vivo; conditions: iv
[4] = tested on: Pseudomonas aeruginosa A3; experiment: Antimicrobial spectrum in 0.5% peptone agar; format: cell-based; conditions: read-out: Minimum Growth Inhibition Concentration
[5] = Carcinostatic activity (general statement); conditions: words
Gram-positive bacteria = experiment: Antimicrobial spectrum, summary; format: cell-based; conditions: 0.5% peptone agar; words
[6] = tested on: Bacillus subtilis NRRLB-558; experiment: Antimicrobial spectrum in 0.5% peptone agar; format: cell-based; conditions: NRRLB558, read-out: Minimum Growth Inhibition Concentration
[7] = tested on: Salmonella enteritidis 1891; experiment: Antimicrobial spectrum in 0.5% peptone agar; format: cell-based; conditions: Salmonella enterica, read-out: Minimum Growth Inhibition Concentration
Sarcina lutea PCI 1001 = experiment: Antimicrobial spectrum in 0.5% peptone agar; format: cell-based; conditions: Micrococcus luteus, PCI1001, read-out: Minimum Growth Inhibition Concentration
Mouse Leukemia L-1210 = experiment: Effect against mouse leukemia L-1210, life-prolonging effect; format: in vivo, mouse (female, CDF series); conditions: ip, once each day for 9 days
Description: Cells (1×10^5) of leukemia L-1210 were intraperitoneally implanted in each of several groups of 8-week-old female mice of the CDF series (5 mice for each group), a solution of oxanosine in a physiological saline solution was intraperitoneally administered once each day for 9 days, and the carcinostatic effect was evaluated based on the life-prolonging effect (T/C, %).

Gram-negative bacteria = experiment: Antimicrobial spectrum, summary; format: cell-based; conditions: 0.5% peptone agar; words
Proteus rettgeri GN 311 = experiment: Antimicrobial spectrum in 0.5% peptone agar; format: cell-based; conditions: Providencia rettgeri, GN311, read-out: Minimum Growth Inhibition Concentration
[8] = tested on: Klebsiella pneumoniae PCI 602; experiment: Antimicrobial spectrum in 0.5% peptone agar; format: cell-based; conditions: PCI602, read-out: Minimum Growth Inhibition Concentration
Proteus vulgaris OX 19 = experiment: Antimicrobial spectrum in 0.5% peptone agar; format: cell-based; conditions: OX19, read-out: Minimum Growth Inhibition Concentration
[9] = tested on: Corynebacterium bovis 1810; experiment: Antimicrobial spectrum in 0.5% peptone agar; format: cell-based; conditions: read-out: Minimum Growth Inhibition Concentration
Candida albicans 3147 = experiment: Antimicrobial spectrum in 0.5% peptone agar; format: cell-based; conditions: read-out: Minimum Growth Inhibition Concentration
[10] = tested on: Shigella dysenteriae JS 11910; experiment: Antimicrobial spectrum in 0.5% peptone agar; format: cell-based; conditions: JS11910, read-out: Minimum Growth Inhibition Concentration
[11] = tested on: Escherichia coli ML1629 (multi-resistant strain); experiment: Antimicrobial spectrum in 0.5% peptone agar; format: cell-based; conditions: read-out: Minimum Growth Inhibition Concentration
Escherichia coli K-12 [12] = experiment: Antimicrobial spectrum in 0.5% peptone agar; format: cell-based; conditions: K12, read-out: Minimum Growth Inhibition Concentration
Solubility in solvents = format: physicochemical
[13] = tested on: Bacillus subtilis PCI 219; experiment: Antimicrobial spectrum in 0.5% peptone agar; format: cell-based; conditions: PCI219, read-out: Minimum Growth Inhibition Concentration
[14] = tested on: Mycobacterium smegmatis 607; experiment: Antimicrobial spectrum in 0.5% peptone agar; format: cell-based; conditions: Mycolicibacterium smegmatis, read-out: Minimum Growth Inhibition Concentration
Shigella sonnei JS 11746 = experiment: Antimicrobial spectrum in 0.5% peptone agar; format: cell-based; conditions: JS11746, read-out: Minimum Growth Inhibition Concentration
[15] = Antiviral activity (general statement); conditions: words, no test described
Escherichia coli K-12 [16] = experiment: Titer by cup method on peptone-agar plate; format: cell-based; conditions: crystals; titer of culture filtrate designated as 1 u/ml
Description: Sakaguchi flasks (500 ml capacity) for a reciprocating type shaking machine were charged with 125 ml of a culture medium (pH value=7.0) comprising 1% of glucose, 1% of glycerol, 1% of sucrose, 0.5% of oat meal, 2% of soybean meal (Prorich supplied by Ajinomoto K.K.), 1% of pressed yeast (supplied by Oriental Kobo Kogyo K.K.), 0.5% of Casamino acid (supplied by Difco Co.) and 0.1% of calcium carbonate, and the culture medium was sterilized at 120° C. for 20 minutes in an autoclave. The culture medium in each was inoculated with one platinum loop of MG265-CF3 (Fermentation Research Institute Deposit No. 5735), and culturing was carried out for 2 days at 28° C. with shaking at 120 rpm. […] (The titer was determined according to the cup method using Escherichia coli K-12 as a test organism on peptone-agar plate, and the titer of the culture filtrate was designated as 1 u/ml.) The filtrate was passed through a column packed with 500 ml of active carbon powder for chromatography (supplied by Wako Junyaku) to absorb the oxanosine on the active carbon. […]

Serratia marcescens = experiment: Antimicrobial spectrum in 0.5% peptone agar; format: cell-based; conditions: read-out: Minimum Growth Inhibition Concentration
[17] = tested on: Micrococcus flavis FDA 16; experiment: Antimicrobial spectrum in 0.5% peptone agar; format: cell-based; conditions: FDA16, read-out: Minimum Growth Inhibition Concentration
[18] = tested on: Staphylococcus aureus, Smith strain; experiment: Antimicrobial spectrum in 0.5% peptone agar; format: cell-based; conditions: read-out: Minimum Growth Inhibition Concentration
[19] = tested on: Staphylococcus aureus FDA 209P; experiment: Antimicrobial spectrum in 0.5% peptone agar; format: cell-based; conditions: FDA209P, read-out: Minimum Growth Inhibition Concentration

In the case of Nc1nc2c(ncn2[C@@H]2O[C@H](CO)[C@@H](O)[C@H]2O)c(=O)o1 [oxanosine], the Cells (HeLa; 0.1 mcg/ml) is reported as 11.70 × 10^5 /plate, the Cells (HeLa; 1 mcg/ml) is reported as 10.31 × 10^5 /plate and the Cells (HeLa; 10 mcg/ml) is reported as 8.68 × 10^5 /plate. The Cells (HeLa; 100 mcg/ml) was 1.08 × 10^5 /plate, the inhibition at 0.1 µg/mL (HeLa; Homo sapiens, HeLa, 0.1 mcg/ml, read-out: Percent Inhibition) was 1.76% and the inhibition at 1 µg/mL (HeLa; Homo sapiens, HeLa, 1 mcg/ml, read-out: Percent Inhibition) was 15.3%. It also gave an inhibition at 10 µg/mL (HeLa; Homo sapiens, HeLa, 10 mcg/ml, read-out: Percent Inhibition) of 31.2%, an inhibition at 100 µg/mL (HeLa; Homo sapiens, HeLa, 100 mcg/ml, read-out: Percent Inhibition) of 100% and an IC50 (HeLa; Homo sapiens, HeLa) of roughly 30.9 µg/mL (≈ 109 µM). The MIC (Proteus rettgeri GN 466) was 12.5 µg/mL (≈ 44 µM), the MIC (Salmonella typhi T-63) was greater than 100 µg/mL and the MIC (Escherichia coli NIHJ) was greater than 100 µg/mL. For the same molecule, the MIC [1] was 12.5 µg/mL (≈ 44 µM), the MIC [2] was 6.25 µg/mL (≈ 22 µM) and the LD50 ([3]; in vivo) was greater than 200 mg/kg. The “acute toxicity compared with various known nucleic acid type antibiotic substances” value ([3]; words) was “lower than those of various known nucleic acid type antibiotic substances”, the MIC [4] was greater than 100 µg/mL and the carcinostatic activity [5] was “has carcinostatic and antiviral activity; also recorded: has carcinostatic and antiviral actions”. The “growth-inhibiting action against Gram-positive bacteria” value (Gram-positive bacteria) was “does not show growth-inhibiting action”, the MIC [6] was greater than 100 µg/mL and the MIC [7] was greater than 100 µg/mL. The MIC (Sarcina lutea PCI 1001) was greater than 100 µg/mL, the “Life-Prolonging Effect (T/C, %)” value (Mouse Leukemia L-1210; 62.5 μg/mouse/day) was 100% and the “Life-Prolonging Effect (T/C, %)” value (Mouse Leukemia L-1210; 125 μg/mouse/day) was 120%. The “Life-Prolonging Effect (T/C, %)” value (Mouse Leukemia L-1210; 250 μg/mouse/day) was 120%, the “Life-Prolonging Effect (T/C, %)” value (Mouse Leukemia L-1210; 500 μg/mouse/day) was 153% and the “Life-Prolonging Effect (T/C, %)” value (Mouse Leukemia L-1210; 1000 μg/mouse/day) was 160%. For the same molecule, the “life-prolonging effect in leukemia L-1210 tumor-bearing mice” value (Mouse Leukemia L-1210; words) was “has a life-prolonging effect”, the “growth-inhibiting action against Gram-negative bacteria” value (Gram-negative bacteria) was “relatively strong growth-inhibiting action; also recorded: relatively strong inhibitory activity” and the MIC (Proteus rettgeri GN 311) was greater than 100 µg/mL. It also gave an MIC [8] greater than 100 µg/mL, an MIC (Proteus vulgaris OX 19) of 25 µg/mL (≈ 88 µM) and an MIC [9] greater than 100 µg/mL. For the same molecule, the MIC (Candida albicans 3147) was greater than 100 µg/mL, the MIC [10] was 25 µg/mL (≈ 88 µM) and the MIC [11] was 25 µg/mL (≈ 88 µM). For the same molecule, the MIC (Escherichia coli K-12 [12]) was 12.5 µg/mL (≈ 44 µM), the “Solubility in Solvents” value (Solubility in solvents; organic solvents such as ethanol, acetone, ethyl acetate (b147 only), ether, benzene) was “insoluble or only slightly soluble” and the “Solubility in Solvents” value (Solubility in solvents; water, methanol and dimethylsulfoxide) was “Soluble”. It also gave an MIC [13] greater than 100 µg/mL, an MIC [14] greater than 100 µg/mL and an MIC (Shigella sonnei JS 11746) of 25 µg/mL (≈ 88 µM). The antiviral activity [15] was “has carcinostatic and antiviral activity; also recorded: has carcinostatic and antiviral actions”, the titer (Escherichia coli K-12 [16]) was 117 u/mg and the MIC (Serratia marcescens) was greater than 100 µg/mL. For the same molecule, the MIC [17] was greater than 100 µg/mL, the MIC [18] was greater than 100 µg/mL and the MIC [19] was greater than 100 µg/mL.

Source: patent US4394446A, “Process for the preparation of the antibiotic oxanosine” (Zaidan Hojin Biseibutsu Kagaku Kenkyu Kai, priority 1980, dated 1983)
